Measurements taken from patent publication US20030008897A1, “Method of controlling weight gain associated with therapeutic drugs” (priority 2000, published 2003).

Legend:
[1] = target: [3H]Noradenaline reuptake (Rattus norvegicus, UniProt Q9WTR4); experiment: in vitro [3H]noradrenaline reuptake inhibition in rat brain tissue; type: biochemical; details: means of ≧3 separate determinations
[2] = tested on: female Sprague-Dawley rats; experiment: clozapine-induced hyperphagia (food intake) in rats; type: in vivo, rat; details: for Mean food intake ± SEM: 3 mg/kg orally, food intake over 2 h, n=10, vehicle 6.5 ± 0.9
Protocol: Experiments were performed in individually-housed female Sprague-Dawley rats with free access to food (powdered rat chow containing 20% lard) and tap water at all times. On the day of the experiment, animals (n=10) were dosed orally with vehicle; the neuroleptic clozapine 3 mg/kg; sibutramine 3 mg/kg or sibutramine plus clozapine 3 mg/kg; and their food intake was monitored over 2 h.

Compound CC(NC(C)(C)C)C(=O)c1cccc(Cl)c1 (stereo not shown) [Bupropion] has a Ki [1] of 2590 nM.
CN1CCN(C2=Nc3cc(Cl)ccc3Nc3ccccc32)CC1 [Clozapine] was tested, and the “Mean food intake ± SEM” value [2] was 9.3 ± 0.7 g/kg.
For CC(C)CC(N(C)C)C1(c2ccc(Cl)cc2)CCC1 (stereo not shown) [Sibutramine, N,N-dimethyl-1-[1-(4-chlorophenyl)cyclobutyl]-3-methylbutylamine], the “Mean food intake ± SEM” value [2] was 1.7 ± 0.6 g/kg and the “effect on food intake compared to vehicle-treated control group” value ([2]; 3 mg/kg po, over 2 h) was “significantly decreased food intake”.
